Experimental data from the NIST ThermoML archive (doi:10.1021/je900598y).

What was measured:
[1] = 298.15 K; 101.33 kPa; Liquid
[2] = excess molar enthalpy (molar enthalpy of mixing); xn = mol fraction of the nth substance listed; conditions: 298.15 K, Liquid, Calvet calorimetry

CCCCCC(=O)OC(=O)CCCCC [caproic anhydride]
Conditions	mass density [kg/m3]
[1]	923.96

CCCCCC(=O)OC(=O)CCCCC [caproic anhydride] + CCCCCCCCCCCC
[2]
Conditions	excess molar enthalpy [kcal/mol]
x1 = 0.0213	0.0366
x1 = 0.0417	0.0668
x1 = 0.0612	0.0922
x1 = 0.08	0.114
x1 = 0.098	0.133
x1 = 0.1154	0.15
x1 = 0.1349	0.166
x1 = 0.1536	0.181
x1 = 0.1714	0.194
x1 = 0.1886	0.204
x1 = 0.205	0.214
x1 = 0.2208	0.222
x1 = 0.2374	0.23
x1 = 0.2533	0.236
x1 = 0.2625	0.244
x1 = 0.2688	0.247
x1 = 0.2754	0.249
x1 = 0.2824	0.252
x1 = 0.2897	0.254
x1 = 0.2974	0.257
x1 = 0.3056	0.26
x1 = 0.3134	0.262
x1 = 0.3215	0.264
x1 = 0.3301	0.266
x1 = 0.3392	0.268
x1 = 0.3471	0.27
x1 = 0.3555	0.272
x1 = 0.3642	0.273
x1 = 0.3733	0.275
x1 = 0.383	0.276
x1 = 0.3931	0.278
x1 = 0.4023	0.279
x1 = 0.412	0.279
x1 = 0.4222	0.28
x1 = 0.4329	0.28
x1 = 0.4442	0.281
x1 = 0.456	0.281
x1 = 0.4672	0.281
x1 = 0.4789	0.28
x1 = 0.4913	0.279
x1 = 0.5043	0.278
x1 = 0.5162	0.276
x1 = 0.5286	0.275
x1 = 0.5417	0.272
x1 = 0.5554	0.27
x1 = 0.5698	0.267
x1 = 0.585	0.263
x1 = 0.5987	0.259
x1 = 0.613	0.255
x1 = 0.628	0.251
x1 = 0.6438	0.245
x1 = 0.6604	0.239
x1 = 0.6778	0.232
x1 = 0.6941	0.224
x1 = 0.7112	0.217
x1 = 0.7291	0.208
x1 = 0.748	0.198
x1 = 0.7678	0.187
x1 = 0.7854	0.176
x1 = 0.8039	0.166
x1 = 0.8233	0.151
x1 = 0.8436	0.137
x1 = 0.8649	0.121
x1 = 0.8874	0.103
x1 = 0.9079	0.086
x1 = 0.9293	0.0676
x1 = 0.9517	0.0472
x1 = 0.9753	0.0247

CCCCCC(=O)OC(=O)CCCCC [caproic anhydride] + CCCCCCCCCCCCCC
[2]
Conditions	excess molar enthalpy [kcal/mol]
x1 = 0.0274	0.0479
x1 = 0.0533	0.0863
x1 = 0.0779	0.118
x1 = 0.1012	0.144
x1 = 0.1234	0.166
x1 = 0.1445	0.185
x1 = 0.1681	0.203
x1 = 0.1904	0.219
x1 = 0.2115	0.232
x1 = 0.2316	0.247
x1 = 0.2372	0.25
x1 = 0.2431	0.253
x1 = 0.2493	0.256
x1 = 0.2559	0.259
x1 = 0.2628	0.263
x1 = 0.2691	0.266
x1 = 0.2757	0.269
x1 = 0.2826	0.272
x1 = 0.2899	0.275
x1 = 0.2975	0.278
x1 = 0.3056	0.281
x1 = 0.3129	0.284
x1 = 0.3204	0.286
x1 = 0.3284	0.289
x1 = 0.3368	0.291
x1 = 0.3456	0.294
x1 = 0.3548	0.296
x1 = 0.363	0.298
x1 = 0.3715	0.3
x1 = 0.3805	0.301
x1 = 0.3899	0.303
x1 = 0.3998	0.305
x1 = 0.4012	0.306
x1 = 0.4103	0.307
x1 = 0.4199	0.308
x1 = 0.4299	0.309
x1 = 0.4404	0.31
x1 = 0.4514	0.31
x1 = 0.463	0.31
x1 = 0.4734	0.31
x1 = 0.4843	0.31
x1 = 0.4958	0.309
x1 = 0.5077	0.308
x1 = 0.5203	0.307
x1 = 0.5335	0.305
x1 = 0.5453	0.303
x1 = 0.5575	0.3
x1 = 0.5703	0.297
x1 = 0.5838	0.294
x1 = 0.5979	0.29
x1 = 0.6126	0.286
x1 = 0.6261	0.281
x1 = 0.6401	0.277
x1 = 0.6548	0.271
x1 = 0.6702	0.265
x1 = 0.6863	0.258
x1 = 0.7032	0.249
x1 = 0.7185	0.242
x1 = 0.7345	0.232
x1 = 0.7512	0.223
x1 = 0.7686	0.212
x1 = 0.7869	0.2
x1 = 0.8038	0.188
x1 = 0.8214	0.175
x1 = 0.8397	0.16
x1 = 0.8589	0.145
x1 = 0.879	0.127
x1 = 0.9001	0.108
x1 = 0.9185	0.0894
x1 = 0.9376	0.07
x1 = 0.9575	0.0488
x1 = 0.9783	0.0255

CCCCCC(=O)OC(=O)CCCCC [caproic anhydride] + CCCCCCCCCCCCCCCC
[2]
Conditions	excess molar enthalpy [kcal/mol]
x1 = 0.0307	0.0555
x1 = 0.0596	0.0993
x1 = 0.0868	0.135
x1 = 0.1125	0.163
x1 = 0.1368	0.189
x1 = 0.1597	0.209
x1 = 0.1815	0.227
x1 = 0.2022	0.242
x1 = 0.2219	0.255
x1 = 0.2406	0.266
x1 = 0.2627	0.278
x1 = 0.282	0.289
x1 = 0.2889	0.293
x1 = 0.2962	0.296
x1 = 0.3038	0.3
x1 = 0.3118	0.303
x1 = 0.3202	0.307
x1 = 0.3291	0.31
x1 = 0.3373	0.313
x1 = 0.346	0.316
x1 = 0.355	0.318
x1 = 0.3646	0.321
x1 = 0.3747	0.324
x1 = 0.3853	0.326
x1 = 0.3954	0.329
x1 = 0.4059	0.331
x1 = 0.417	0.333
x1 = 0.4262	0.333
x1 = 0.4357	0.334
x1 = 0.4457	0.335
x1 = 0.4562	0.336
x1 = 0.4671	0.336
x1 = 0.4787	0.336
x1 = 0.4907	0.336
x1 = 0.5034	0.335
x1 = 0.5144	0.334
x1 = 0.5258	0.333
x1 = 0.5377	0.331
x1 = 0.5502	0.33
x1 = 0.5633	0.328
x1 = 0.5771	0.325
x1 = 0.5893	0.322
x1 = 0.602	0.318
x1 = 0.6153	0.314
x1 = 0.6292	0.31
x1 = 0.6437	0.304
x1 = 0.6589	0.299
x1 = 0.6721	0.293
x1 = 0.6857	0.286
x1 = 0.6999	0.279
x1 = 0.7147	0.271
x1 = 0.7287	0.262
x1 = 0.7433	0.254
x1 = 0.7584	0.244
x1 = 0.7742	0.233
x1 = 0.7907	0.221
x1 = 0.8078	0.208
x1 = 0.8233	0.196
x1 = 0.8393	0.181
x1 = 0.856	0.166
x1 = 0.8733	0.15
x1 = 0.8914	0.132
x1 = 0.9102	0.112
x1 = 0.9269	0.0931
x1 = 0.9411	0.0725
x1 = 0.962	0.0493
x1 = 0.9807	0.0265
